# Reference: patent US10457710B2, “Antimicrobial peptides, their variants and uses” (priority 2015, dated 2019)
# Where a SMILES comes first, the peptide text is derived from it. [ ]: non-standard residue; d: D form.
# Columns and labels:
# Format in all cases: cell-based
# [1] = test system: C. quillermondiae; assay: MIC, clinical yeast strains; conditions: clinical yeast strain 1; D-form peptide; concentrations tested 0.125 to 128 μg/ml
# How it was run: (§1)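 Broth microdilution in Potato dextrose broth, inoculum 5.0×10^5 cfu/ml, peptide 0.125–128 μg/ml, incubated at 37 °C for 20–24 h; MIC taken as lowest concentration without visible growth. A. johnsonii clinical strains were tested the same way in Mueller Hinton broth.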
# [2] = test system: clinical strains of Acinetobacter baumannii; assay: MIC, microdilution, clinical strains; set-up: unit: μg/ml; conditions: 0.02% BSA, 0.2% acetic acid
# Description: Minimum inhibition concetrations (MICs) were determined against Escherichia coli (ATCC 25922), Staphylococcus aureus (ATCC 25923), Klebsiella pneumoniae (ATCC 10031) and Pseudomonas aeruginosa (ATCC 27853). Also clinical strains of E. coli, K. pneumoniae, E. cloacae, P. aeruginosa, Serratia marcescens, Proteus mirabilis, S. pneumoniae, Acinetobacter baumannii, A. johnsonii and S. aureus were used for MICs assays. Additionally, clinical strains of yeast including Candida albicans, C. glabrata, C. parapsilosis and C. quillermondiae were used. The susceptibility of these microorganisms to Chain peptides were determined using micro broth dilution assay. Colonies of the respective microorganism from Muller Hinton (MH) agar plates incubated overnight were suspended in MH broth media and final concentration of microorganism was adjusted to 5.0×10^5 cfu/ml. An aliquot of 10 μl of each Chain peptide, or gentamicin, tetracycline as reference antibiotics were added in differing concentrations along with 90 μl of bacterial suspension to 96 well polypropylene plates and incubated at 37° C. for 20 to 24 hours. Concentrations of Chain peptides and reference antibiotics ranged from 0.125 to 128 μg/ml and the MICs were recorded as the lowest concentration with no visual growth of bacteria. Similarly, antifungal MICs were tested in Potato dextrose broth.
# Clinical strains of yeasts including Candida albicans, C. glabrata, C. parapsilosis and C. quillermondiae were also tested with the 12 Chain peptides. The minimum inhibitory concentration (MICs) varied between these peptides and are presented in Tables 4a, 4b, 4c and 5a, 5b, 5c. Peptides Chain 105, 201 and 308 are broad spectrum antimicrobials with MICs between 0.5-32 μg/ml against all the bacteria and yeasts tested, except Serratia marcescens and Proteus mirabilis, against which the MICs were between 64-128 μg/ml. Peptide Chain 306 has narrow spectrum activity against E. coli at 1 μg/ml and for the rest of the bacterial strains at >32 μg/ml (FIG. 10c).
# [3] = test system: Candida albicans; assay: MIC, clinical yeast strains; conditions: D-form peptide, concentrations tested 0.125 to 128 μg/ml
# How it was run: as §1
# [4] = test system: C. parapsilosis; assay: MIC, clinical yeast strains; conditions: D-form peptide, concentrations tested 0.125 to 128 μg/ml
# How it was run: as §1
# [5] = test system: C. glabrata; assay: MIC, clinical yeast strains; conditions: D-form peptide, concentrations tested 0.125 to 128 μg/ml
# How it was run: as §1
# [6] = test system: clinical strains of S. pneumoniae; assay: MIC, microdilution, clinical strains; conditions: 0.02% BSA, 0.2% acetic acid
# How it was run: (§2)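 MIC = lowest peptide concentration without visual growth after 20–24 h at 37° C. Range 0.125–128 μg/ml, inoculum 5.0×10^5 cfu/ml, microdilution format. Antifungal tests used potato dextrose broth; bacterial tests used MH broth.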
# [7] = test system: clinical strains of S. aureus; assay: MIC, microdilution, clinical strains; conditions: 0.02% BSA, 0.2% acetic acid
# How it was run: as §2
# [8] = test system: clinical strains of E. cloacae; assay: MIC, microdilution, clinical strains; conditions: 0.02% BSA, 0.2% acetic acid
# How it was run: as §2
# [9] = test system: clinical strains of K. pneumoniae; assay: MIC, microdilution, clinical strains; conditions: 0.02% BSA, 0.2% acetic acid
# How it was run: as §2
# [10] = test system: clinical strains of Proteus mirabilis; assay: MIC, microdilution, clinical strains; conditions: 0.02% BSA, 0.2% acetic acid
# How it was run: as §2
# [11] = test system: clinical strains of P. aeruginosa; assay: MIC, microdilution, clinical strains; conditions: 0.02% BSA, 0.2% acetic acid
# How it was run: as §2
# [12] = test system: clinical strains of Serratia marcescens; assay: MIC, microdilution, clinical strains; conditions: 0.02% BSA, 0.2% acetic acid
# How it was run: as §2
# [13] = test system: clinical strains of E. coli; assay: MIC, microdilution, clinical strains; conditions: microdilution, Muller Hinton broth-cation adjusted, 0.02% BSA, 0.2% acetic acid
# How it was run: as §2
smiles,measurement,setting,value
CC[C@@H](C)[C@@H](NC(=O)[C@@H](CC(C)C)NC(=O)[C@@H](CCCNC(=N)N)NC(=O)[C@H](N)CCCNC(=N)N)C(=O)N[C@H](Cc1c[nH]c2ccccc12)C(=O)N[C@H](CCCNC(=N)N)C(=O)N[C@H](CCCNC(=N)N)C(=O)N[C@H](Cc1ccccc1)C(=O)N[C@H](CCCCN)C(=O)N[C@H](Cc1c[nH]c2ccccc12)C(=O)N[C@H](CC(C)C)C(=O)N[C@H](CCCNC(=N)N)C(=O)O [Chain204D] (H-[dR][dR][dL][dI][dW][dR][dR][dF][dK][dW][dL][dR]-OH),"Minimum inhibitory concentration, C. quillermondiae strain 1",[1],4
same,Minimum inhibitory concentration,"[2]; Acinetobacter baumannii strain 1, Muller Hinton broth-cation adjusted",4
same,Minimum inhibitory concentration,"[2]; Acinetobacter baumannii strain 2, Muller Hinton broth-cation adjusted",4
same,Minimum inhibitory concentration,"[2]; Acinetobacter baumannii strain 3, Muller Hinton broth-cation adjusted",4
same,Minimum inhibitory concentration,"[2]; Acinetobacter baumannii strain 4, Muller Hinton broth-cation adjusted",4
same,Minimum inhibitory concentration,"[2]; Acinetobacter baumannii strain 5, Muller Hinton broth-cation adjusted",4
same,"Minimum inhibitory concentration, Candida albicans strain 1",[3]; clinical yeast strain 1,8
same,"Minimum inhibitory concentration, Candida albicans strain 2",[3]; clinical yeast strain 2,8
same,"Minimum inhibitory concentration, Candida albicans strain 3",[3]; clinical yeast strain 3,8
same,"Minimum inhibitory concentration, Candida albicans strain 4",[3]; clinical yeast strain 4,8
same,"Minimum inhibitory concentration, Candida albicans strain 5",[3]; clinical yeast strain 5,8
same,"Minimum inhibitory concentration, C. parapsilosis strain 1",[4]; clinical yeast strain 1,4
same,"Minimum inhibitory concentration, C. parapsilosis strain 2",[4]; clinical yeast strain 2,4
same,"Minimum inhibitory concentration, C. parapsilosis strain 3",[4]; clinical yeast strain 3,8
same,"Minimum inhibitory concentration, C. parapsilosis strain 4",[4]; clinical yeast strain 4,8
same,"Minimum inhibitory concentration, C. glabrata strain 1",[5]; clinical yeast strain 1,4
same,"Minimum inhibitory concentration, C. glabrata strain 2",[5]; clinical yeast strain 2,8
same,"Minimum inhibitory concentration, C. glabrata strain 3",[5]; clinical yeast strain 3,32
same,"Minimum inhibitory concentration, C. glabrata strain 4",[5]; clinical yeast strain 4,32
same,Minimum inhibitory concentration,"[6]; Streptococcus pneumoniae strain 1, Muller Hinton broth-cation adjusted",4
same,Minimum inhibitory concentration,"[6]; Streptococcus pneumoniae strain 2, Muller Hinton broth-cation adjusted",4
same,Minimum inhibitory concentration,"[6]; Streptococcus pneumoniae strain 3, Muller Hinton broth-cation adjusted",4
same,Minimum inhibitory concentration,"[6]; Streptococcus pneumoniae strain 4, Muller Hinton broth-cation adjusted",4
same,Minimum inhibitory concentration,"[6]; Streptococcus pneumoniae strain 5, Muller Hinton broth-cation adjusted",4
same,Minimum inhibitory concentration,"[7]; Staphylococcus aureus strain 1, Muller Hinton broth-cation adjusted",1
same,Minimum inhibitory concentration,"[7]; Staphylococcus aureus strain 2, Muller Hinton broth-cation adjusted",2
same,Minimum inhibitory concentration,"[7]; Staphylococcus aureus strain 3, Muller Hinton broth-cation adjusted",2
same,Minimum inhibitory concentration,"[7]; Staphylococcus aureus strain 4, Muller Hinton broth-cation adjusted",1
same,Minimum inhibitory concentration,"[7]; Staphylococcus aureus strain 5, Muller Hinton broth-cation adjusted",1
same,Minimum inhibitory concentration,"[8]; Enterobacter cloacae strain 1, Muller Hinton broth-cation adjusted",4
same,Minimum inhibitory concentration,"[8]; Enterobacter cloacae strain 2, Muller Hinton broth-cation adjusted",8
same,Minimum inhibitory concentration,"[8]; Enterobacter cloacae strain 3, Muller Hinton broth-cation adjusted",4
same,Minimum inhibitory concentration,"[8]; Enterobacter cloacae strain 4, Muller Hinton broth-cation adjusted",8
same,Minimum inhibitory concentration,"[8]; Enterobacter cloacae strain 5, Muller Hinton broth-cation adjusted",2
same,Minimum inhibitory concentration,"[9]; Klebsiella pneumoniae strain 1, Muller Hinton broth-cation adjusted",8
same,Minimum inhibitory concentration,"[9]; Klebsiella pneumoniae strain 2, Muller Hinton broth-cation adjusted",4
same,Minimum inhibitory concentration,"[9]; Klebsiella pneumoniae strain 3, Muller Hinton broth-cation adjusted",16
same,Minimum inhibitory concentration,"[9]; Klebsiella pneumoniae strain 4, Muller Hinton broth-cation adjusted",4
same,Minimum inhibitory concentration,"[9]; Klebsiella pneumoniae strain 5, Muller Hinton broth-cation adjusted",2
same,Minimum inhibitory concentration,"[10]; Proteus mirabilis strain 1, Muller Hinton broth-cation adjusted",>128
same,Minimum inhibitory concentration,"[10]; Proteus mirabilis strain 2, Muller Hinton broth-cation adjusted",32
same,Minimum inhibitory concentration,"[10]; Proteus mirabilis strain 3, Muller Hinton broth-cation adjusted",64
same,Minimum inhibitory concentration,"[10]; Proteus mirabilis strain 4, Muller Hinton broth-cation adjusted",>128
same,Minimum inhibitory concentration,"[10]; Proteus mirabilis strain 5, Muller Hinton broth-cation adjusted",>128
same,Minimum inhibitory concentration,"[11]; Pseudomonas aeruginosa strain 1, Muller Hinton broth-cation adjusted",4
same,Minimum inhibitory concentration,"[11]; Pseudomonas aeruginosa strain 2, Muller Hinton broth-cation adjusted",16
same,Minimum inhibitory concentration,"[11]; Pseudomonas aeruginosa strain 3, Muller Hinton broth-cation adjusted",8
same,Minimum inhibitory concentration,"[11]; Pseudomonas aeruginosa strain 4, Muller Hinton broth-cation adjusted",8
same,Minimum inhibitory concentration,"[11]; Pseudomonas aeruginosa strain 5, Muller Hinton broth-cation adjusted",4
same,Minimum inhibitory concentration,"[12]; Serratia marcescens strain 1, Muller Hinton broth-cation adjusted",>128
same,Minimum inhibitory concentration,"[12]; Serratia marcescens strain 2, Muller Hinton broth-cation adjusted",>128
same,Minimum inhibitory concentration,"[12]; Serratia marcescens strain 3, Muller Hinton broth-cation adjusted",128
same,Minimum inhibitory concentration,"[12]; Serratia marcescens strain 4, Muller Hinton broth-cation adjusted",>128
same,Minimum inhibitory concentration,"[12]; Serratia marcescens strain 5, Muller Hinton broth-cation adjusted",>128
same,Minimum inhibitory concentration,[13]; Escherichia coli strain 1,8
same,Minimum inhibitory concentration,[13]; Escherichia coli strain 2,1
same,Minimum inhibitory concentration,[13]; Escherichia coli strain 3,1
same,Minimum inhibitory concentration,[13]; Escherichia coli strain 4,1
same,Minimum inhibitory concentration,[13]; Escherichia coli strain 5,1
